Consider six molecules from patent publication US5753610A, “Perfume containing (6E) -2,3-dihydrofarnesol” (Takasago International Corporation, priority 1995, dated 1998).

The test system of one series is Staphylococcus aureus. As to the kind of experiment: Antibacterial test, step dilution method in agar medium. Type of series: cell-based. The following applies: 30° C., 48 hours, read-out: minimum inhibitory concentration (MIC). The procedure:
(§1) The minimum inhibitory concentrations of (6E)-2,3-dihydrofarnesol synthesized in Synthesis Example 1 on bacteria listed in Table 1 were determined in the following manner by the step dilution method in an agar medium.
(§2) 10 g of brain heart infusion medium (manufactured by Nissui Seiyaku K.K.), 10 g of dry bouillon (manufactured by Nissui Seiyaku K.K.), 4 g of yeast extract powder (manufactured by Difco Laboratories) and 14 g of agar were added to 1,000 ml of distilled water and dissolved therein by heating. Then the obtained solution was pipetted in 10 ml portions into test tubes and sterilized under elevated pressure. Then it was heated again and sustained in the state of a solution. Subsequently, each test solution and ethanol or DMSO (dimethyl sulfoxide) free from any antimicrobial compound of the present invention (employed as a control) were added thereto in amounts of 5 to 200 μl. After mixing, the solutions were poured into plastic Petri dishes (inner diameter: 90 mm) and solidified.
(§3) The medium thus solidified in each Petri dish was divided into 9 parts. Then 5 μl portions of suspensions of the test microorganisms except acne bacteria in distilled water (cell or spore count: 10^8 -10^9 /ml) were inoculated thereinto and incubated at 30° C. for 48 hours.

For another series, the system named is coryne bacteria. Described as above. It counts as cell-based. The settings on record: 30° C., 48 hours, read-out: minimum inhibitory concentration (MIC). The method, then: as §1, §2, §3
Another series has as its system indigenous skin bacteria. The description is as above. The following applies: 30° C., 48 hours, read-out: minimum inhibitory concentration (MIC). It counts as cell-based. The method, then: as §1, §2, §3
The subject of series [1] is bacteria listed in Table 1. The settings on record: JP-A-60-64913; cited from earlier work.
Series [2] deals with bacteria listed in Table 1. As to the kind of experiment: Antibacterial test on the bacteria listed in Table 1 (overall statements). Type of series: cell-based. The following applies: for antimicrobial activity compared with the (6E)-2,3-dihydrofarnesol described before: same test, bacteria listed in Table 1. The method, then: as §1, §2, §3
(§4) In the case of the acne bacteria, a GAM medium (manufactured by Nissui Seiyaku K.K.) was pipetted in 6 ml portions into screwed test tubes (10×105 mm) and sterilized. After adding sample solutions, a culture medium of the acne bacteria was inoculated in 5 μl portions and incubated at 37° C. for 48 hours followed by the judgement of the growth.
Further, the (6E)-2,3-dihydrofarnesol synthesized in Synthesis Example 2 and the (3S)-(6E)-2,3-dihydrofarnesol synthesized in Synthesis Example 3 were subjected to the same test by using the bacteria listed in Table 1.

Series [3] has as its system human skin. The series is described as follows: Patch test on human skin (inside of upper arms). The following applies: for skin irritation: 10% in lanolin, 30 subjects, first 24 hours and subsequent 24 hours.
Experimental: (§5) The obtained solution was then applied onto patches (Finnchamber, manufactured by Taisho Pharmaceutical Co., Ltd.). These patches were adhered to the inside of upper arms of 30 subjects. After 24 hours, the patches were peeled from the skin and the skin irritation was examined. Further, the skin irritation was examined after the subsequent 24 hours.
Another series concerns Bacillus subtilis. As to the kind of experiment: Antibacterial test, step dilution method in agar medium. It counts as cell-based. The following applies: 30° C., 48 hours. The procedure:
as §1, §2, §3

In the next series the test system is Pseudomonas aeruginosa. The description is as above. Type of series: cell-based. The settings on record: 30° C., 48 hours. The method, then: as §1, §2, §3
The test system of a further series is acne bacteria. The series is described as follows: Antibacterial test, acne bacteria in GAM medium. The settings on record: 37° C., 48 hours. It counts as cell-based. The method, then:
as §1, §4

Series [4] deals with human skin. The following applies: in vivo.
Experimental: as §5
Another series relates to skin. The following applies: background, restricts use on a mass scale; cited from earlier work.
For another series, the system named is Guinea pig skin. The following applies: in vivo. The method, then:
A sensitization test with the use of Guinea pigs was carried out in accordance with the Magnusson method by using (a) the (6E)-2,3-dihydrofarnesol of a purity of 99% or above, (b) the (6E)-2,3-dihydrofarnesol of a purity of 52% and (d) the (3S)-(6E)-2,3-dihydrofarnesol.
Then the same test was performed by using farnesol [(2E,6E)-form: (2E,6Z)-form: (2Z,6E)-form: (2Z,6Z)-form=1:1:1:1] which was an analog of the (6E)-2,3-dihydrofarnesol of the present invention.

Values after ≈ are worked out from the molar mass of the structure shown. Read-outs that look alike come from different tables or passages of the source. Where only a bound is given, the exact number is not on record here.

`CC(C)=CCCC(C)=CCCC(C)=CCO` [farnesol]: the values for the MIC in the series on Staphylococcus aureus, in the series on coryne bacteria and in the series with indigenous skin bacteria were 50 µg/mL (≈ 225 µM), 25 µg/mL (≈ 112 µM) and 50 µg/mL (≈ 225 µM), respectively. Moreover, the antimicrobial activity result in series [1] is recorded as “has an antimicrobial activity”.
For `CC(C)=CCC/C(C)=C/CCC(C)CCO` (stereo not drawn) [(6E)-2,3-dihydrofarnesol], in [2], the “antimicrobial activity compared with farnesol” value is listed as “superior to farnesol in the antimicrobial activity on some bacteria”. Besides, the “sensitization, human skin” value with human skin [3] (10% in a lanolin solution) is “no sensitization”.
In the case of `CC(C)=CCC/C(C)=C/CCC(C)CCO` (stereo not drawn) [(b), (6E)-2,3-dihydrofarnesol], the “minimum inhibitory concentration (MIC)” value in the series on Bacillus subtilis and with Pseudomonas aeruginosa was 20 ppm each time. Moreover, the “concentration at which an antimicrobial activity was exerted” value in the series with acne bacteria is at most 10 ppm. The “concentration at which an antimicrobial activity was observed” value in series [2] (bacteria of Table 1) is listed as at most 30 ppm. Further, in the series on human skin [4], the skin irritation result was “no skin irritation”.
For `CC(C=O)Cc1ccc(C(C)C)cc1` (stereo not drawn) [cyclamen aldehyde], the skin sensitization entry with skin was “skin sensitization”.
For `CC(C)=CCC/C(C)=C/CCC(C)CCO` (stereo not drawn) [(a), (6E)-2,3-dihydrofarnesol], the “antimicrobial activity compared with the (6E)-2,3-dihydrofarnesol described before” value in series [2] is on record as “almost the same as those described above, though some differences were observed”. For the same molecule, in the series on human skin [3], the skin irritation entry is given as “no skin irritation”.
On to `CC(C)=CCC/C(C)=C/CC[C@H](C)CCO` [(d), (3S)-(6E)-2,3-dihydrofarnesol], for which, in the series on Guinea pig skin, the sensitization entry was “high safety without any sensitization”. For the same molecule, the “antimicrobial activity compared with the (6E)-2,3-dihydrofarnesol described before” value in series [2] is on record as “antimicrobial activity similar to the above-mentioned (6E)-2,3-dihydrofarnesol”; in series [2] (listed as (3S)-(6E)-2,3-dihydrofarnesol synthesized in Synthesis Example 3) it was “almost the same as those described above, though some differences were observed”. Also, the skin irritation entry in the series on human skin [3] is “no skin irritation”.
